Source: US20040192910A1, “Sulfonylamino derivatives useful as herbicides” (priority 2001, published 2004)

Legend:
Assay type in all cases: in vivo
Set-up in all cases: key: 1=total damage; 9=no action
[1] = system: Setaria; experiment: Post-emergence herbicidal action; conditions: 250 g a.i./ha (500 litres water/ha), sprayed at 4- to 6-leaf stage, evaluated after about 18 days; scale of nine ratings, 1 to 4 = good to very good action
Text: (§1) Post-Emergence Herbicidal Action
(§2) Monocotyledonous and dicotyledonous test plants are raised in a greenhouse in plastic pots containing standard soil and at the 4- to 6-leaf stage are sprayed with an aqueous suspension of the test compounds of formula I (prepared from a 25% wettable powder (Example F3, b) according to WO 97/34485) or with an emulsion of the test compounds of formula I (prepared from a 25% emulsifiable concentrate (Example F1, c) according to WO 97/34485) at a rate of application corresponding to 250 g a.i./ha (500 litres water/ha). The test plants are then grown on in the greenhouse under optimum conditions. After a test duration of about 18 days, the test is evaluated in accordance with a scale of nine ratings (1=total damage, 9=no action). Ratings of from 1 to 4 (especially from 1 to 3) indicate good to very good herbicidal action.

[2] = system: Chenopodium; experiment: Post-emergence herbicidal action; conditions: 250 g a.i./ha (500 litres water/ha), sprayed at 4- to 6-leaf stage, evaluated after about 18 days; scale of nine ratings, 1 to 4 = good to very good action
Text: as §1, §2

[3] = system: Panicum; experiment: Post-emergence herbicidal action; conditions: 250 g a.i./ha (500 litres water/ha), sprayed at 4- to 6-leaf stage, evaluated after about 18 days; scale of nine ratings, 1 to 4 = good to very good action
Text: as §1, §2

[4] = system: Abutilon; experiment: Post-emergence herbicidal action; conditions: 250 g a.i./ha (500 litres water/ha), sprayed at 4- to 6-leaf stage, evaluated after about 18 days; scale of nine ratings, 1 to 4 = good to very good action
Text: as §1, §2

[5] = system: Brachiaria; experiment: Post-emergence herbicidal action; conditions: 250 g a.i./ha (500 litres water/ha), sprayed at 4- to 6-leaf stage, evaluated after about 18 days; scale of nine ratings, 1 to 4 = good to very good action
Text: as §1, §2

[6] = system: Digitaria; experiment: Post-emergence herbicidal action; conditions: 250 g a.i./ha (500 litres water/ha), sprayed at 4- to 6-leaf stage, evaluated after about 18 days; scale of nine ratings, 1 to 4 = good to very good action
Text: as §1, §2

[7] = system: Stellaria; experiment: Post-emergence herbicidal action; conditions: 250 g a.i./ha (500 litres water/ha), sprayed at 4- to 6-leaf stage, evaluated after about 18 days; scale of nine ratings, 1 to 4 = good to very good action
Text: as §1, §2

[8] = system: Amarantus; experiment: Post-emergence herbicidal action; conditions: 250 g a.i./ha (500 litres water/ha), sprayed at 4- to 6-leaf stage, evaluated after about 18 days; scale of nine ratings, 1 to 4 = good to very good action
Text: as §1, §2

[9] = system: Euphoria; experiment: Pre-emergence herbicidal action; conditions: 250 g a.i./ha (500 litres water/ha), sprayed immediately after sowing, evaluated after 3 weeks; scale of nine ratings, 1 to 4 = good to very good action
Text: (§3) Herbicidal Action Prior to Emergence of the Plants (Pre-Emergence Action) Monocotyledonous and dicotyledonous test plants are sown in standard soil in plastic pots. Immediately after sowing, an aqueous suspension (prepared from a 25% wettable powder (Example F3, b) according to WO 97/34485) or an emulsion (prepared from a 25% emulsifiable concentrate (Example F1, c)) of the test compounds is applied by spraying at a rate of application corresponding to 250 […]). The test plants are then cultivated in a greenhouse under optimum conditions.

[10] = system: Chenopodium; experiment: Pre-emergence herbicidal action; conditions: 250 g a.i./ha (500 litres water/ha), sprayed immediately after sowing, evaluated after 3 weeks; scale of nine ratings, 1 to 4 = good to very good action
Text: as §3

[11] = system: Panicum; experiment: Pre-emergence herbicidal action; conditions: 250 g a.i./ha (500 litres water/ha), sprayed immediately after sowing, evaluated after 3 weeks; scale of nine ratings, 1 to 4 = good to very good action
Text: as §3

[12] = system: Abutilon; experiment: Pre-emergence herbicidal action; conditions: 250 g a.i./ha (500 litres water/ha), sprayed immediately after sowing, evaluated after 3 weeks; scale of nine ratings, 1 to 4 = good to very good action
Text: as §3

[13] = system: Echinochloa; experiment: Pre-emergence herbicidal action; conditions: 250 g a.i./ha (500 litres water/ha), sprayed immediately after sowing, evaluated after 3 weeks; scale of nine ratings, 1 to 4 = good to very good action
Text: as §3

[14] = system: Brachiaria; experiment: Pre-emergence herbicidal action; conditions: 250 g a.i./ha (500 litres water/ha), sprayed immediately after sowing, evaluated after 3 weeks; scale of nine ratings, 1 to 4 = good to very good action
Text: as §3

[15] = system: Digitaria; experiment: Pre-emergence herbicidal action; conditions: 250 g a.i./ha (500 litres water/ha), sprayed immediately after sowing, evaluated after 3 weeks; scale of nine ratings, 1 to 4 = good to very good action
Text: as §3

[16] = system: Amarantus; experiment: Pre-emergence herbicidal action; conditions: 250 g a.i./ha (500 litres water/ha), sprayed immediately after sowing, evaluated after 3 weeks; scale of nine ratings, 1 to 4 = good to very good action
Text: as §3

Compound	Post-emergence action, rating, Setaria [1]	Post-emergence action, rating, Chenopodium [2]	Post-emergence action, rating, Panicum [3]	Post-emergence action, rating, Abutilon [4]	Post-emergence action, rating, Brachiaria [5]	Post-emergence action, rating, Digitaria [6]	Post-emergence action, rating, Stellaria [7]	Post-emergence action, rating, Amarantus [8]	Pre-emergence action, rating, Euphoria [9]	Pre-emergence action, rating, Chenopodium [10]	Pre-emergence action, rating, Panicum [11]	Pre-emergence action, rating, Abutilon [12]	Pre-emergence action, rating, Echinochloa [13]	Pre-emergence action, rating, Brachiaria [14]	Pre-emergence action, rating, Digitaria [15]	Pre-emergence action, rating, Amarantus [16]
Cc1nc(C(F)(F)F)ccc1C(=O)C1=C(Cl)C(C)(C)C(=O)C(C)(C)C1=NS(C)(=O)=O [1.001, N-[3-chloro-4,4,6,6-tetramethyl-2-(2-methyl-6-trifluoromethyl-pyridine-3-carbonyl)-5-oxo-cyclohex-2-en-ylidene]-methanesulfonamide]	1	2	1	2	1	1	2	2	–	–	–	–	–	–	–	–
Cc1nc(C(F)(F)F)ccc1C(=O)C1=C(Cl)C(C)(C)C(=O)C(C)(C)C1=NS(=O)(=O)c1cccnc1F [1.026, N-[3-chloro-5-oxo-4,4,6,6-tetramethyl-2-(2-methyl-6-trifluoromethyl-pyridine-3-carbonyl)-cyclohex-2-en-ylidene]-3-(2′-fluoropyridyl)sulfonamide]	1	1	1	1	2	1	2	1	2	1	1	1	1	1	1	1
Cc1nc(C(F)(F)F)ccc1C(=O)C1=C(Cl)C(C)(C)C(=O)C(C)(C)C1=NS(=O)(=O)c1ccccc1 [1.027]	1	1	2	1	2	2	1	2	1	1	1	1	1	1	1	1
C=CS(=O)(=O)N=C1C(C(=O)c2ccc(C(F)(F)F)nc2C)=C(Cl)C(C)(C)C(=O)C1(C)C [1.028, N-[3-chloro-3-oxo-4,4,6,6-tetramethyl-2-(2-methyl-6-trifluoromethyl-pyridine-3-carbonyl)-cyclohex-2-en-ylidene]-vinylsulfonamide]	1	1	1	1	2	1	1	2	2	1	1	1	1	1	3	1
CSC1=C(C(=O)c2ccc(C(F)(F)F)nc2C)C(=NS(=O)(=O)c2cccnc2F)C(C)(C)C(=O)C1(C)C [1.078, N-[3-methylthio-5-oxo-4,4,6,6-tetramethyl-2-(2-methyl-6-trifluoromethyl-pyridine-3-carbonyl)-cyclohex-2-en-ylidene]-3-(2′-fluoropyridyl)sulfonamide]	2	1	1	1	3	1	3	2	2	1	1	1	1	2	1	1
CSC1=C(C(=O)c2ccc(C(F)(F)F)nc2C)C(=NS(=O)(=O)c2ccccc2)C(C)(C)C(=O)C1(C)C [1.079]	2	1	2	2	2	2	1	2	2	1	1	1	1	1	1	1
